# Reference: patent US20020142436A1, “Human adenylate cyclase and use therefor” (priority 1995, published 2002)
# Square brackets hold non-standard residues; d marks the D form. Ends that are not written are not given here. Peptide text beside a SMILES is read from it. ξ: configuration not given here. ξNMeBmt = C/C=C/C[C@@H](C)[C@@H](O)C(NC)C(=O)O; NMeL = CN[C@@H](CC(C)C)C(=O)O; NMeV = CN[C@H](C(=O)O)C(C)C; Abu = CC[C@H](N)C(=O)O; Sar = CNCC(=O)O
# Experiments:
# [1] = system: T1, GST fusion protein of the FKBP12 like domain (residues 594-611) of mouse AC
# T1 sequence: IDDSRESSGPRGQGTASP
# AtT20 cells [2] = test: CRF-induced cAMP accumulation in AtT20 cells; assay type: cell-based, mouse; settings: for cAMP response to CRF after lowering intracellular free Ca2+: EGTA 2 mmol/l, nimodipine 1 μmol/l, BAPTA-AM 20 μmol/l in preincubation, IBMX 0.5 mmol/l; for CRF-induced cAMP formation: 1 μmol/l FK506, 10 nmol/l CRF, calcium-depleted cells
# Procedure: Experiments for cAMP were all carried out in Hanks balanced salt solution containing 2 mM CaCl2 and 1 mM MgSO4 buffered with 25 mM HEPES pH 7.4 and supplemented with 0.25% (w/v) of bovine serum albumin. The cells were preincubated in serum free medium for 1 hour, after which blockers of phosphosdiesterase (isobutylmethylxanthine 0.5 mM (IBMX) and/or rolipram 0.1 mM) along with various other treatments were applied for 30 minutes at 37° C. Subsequently the cells were cooled to 22° C. for 5 minutes in a water bath and agonists were added for 10 minutes. The reaction was stopped by the addition of 0.2 mol/l HCl to achieve a final concentration of 0.1 mol/l (Brooker et al, (1979) Adv. in Cyclic Nucl. Res. Vol. 10, G. Brooker, P. Greengard and G. A. Robinson, Raven Press, New York, 2-34).
# In some experiments cells were preincubated for 30 minutes in medium containing 2 mmol/l EGTA and no added Ca^2+, supplemented with 5 μmol/l A23187 and 2.5 μmol/l nifedipine in order to deplete rapidly mobilized cellular stores of Ca^2+. […] The rationale for this pretreatment is that calcineurin reportedly influences L-channel activity (Lai et al, (1993) J. Neurochem. 61:1333-1339; and Armstrong et al, (1987) Proc. Natl. Acad. Sci. U.S.A. 84:2518-2522), whereas the treatment regimen used here would make Ca^2+ entry independent of this regulation.
# These compounds were made up in ethanol at 10^−3 mol/l and diluted with the incubation medium to the desired final concentrations. In some cases cells were preincubated with L685,818 the structural analogue of FK506 that binds to FKBP-12 and inhibits prolyl-isomerase activity but is devoid of immunosuppressant activity (Dumont et al, (1992) J. Exp. Med. 176:751-760) for 10 minutes before the addition of FK506 for 30 minutes at 37° C.
# AtT20 cells [3] = test: cAMP accumulation induced by β-adrenergic stimulation (isoproterenol) in AtT20 cells; assay type: cell-based, mouse
# [4] = system: HEK293 cells transfected with AC; test: cAMP in HEK293 cells transiently transfected with AC; assay type: cell-based, human; settings: FK506 2 μmol/l, L-685,818 100 μmol/l; 1 mmol/l IBMX, 0.1 mmol/l rolipram
# AtT20 cells [5] = test: forskolin-evoked cAMP accumulation in AtT20 cells; assay type: cell-based, mouse
# Procedure: The cells were preincubated in serum free medium for 1 hour, after which blockers of phosphosdiesterase (isobutylmethylxanthine 0.5 mM (IBMX) and/or rolipram 0.1 mM) along with various other treatments were applied for 30 minutes at 37° C. Subsequently the cells were cooled to 22° C. for 5 minutes in a water bath and agonists were added for 10 minutes. […] Res. Vol. 10, G. Brooker, P. Greengard and G. A. Robinson, Raven Press, New York, 2-34).
# AtT20 cells [6] = test: ACTH release by AtT20 cells; assay type: cell-based, mouse
# [7] = isoproterenol 2 nmol/l, pretreatment FK506 1 μmol/l or BAPTA/AM 20 μmol/l, IBMX 0.5 mmol/l, rolipram 0.1 mmol/l
# [8] = isoproterenol 10 nmol/l, pretreatment FK506 1 μmol/l or BAPTA/AM 20 μmol/l, IBMX 0.5 mmol/l, rolipram 0.1 mmol/l
# [9] = isoproterenol 1000 nmol/l, pretreatment FK506 1 μmol/l or BAPTA/AM 20 μmol/l, IBMX 0.5 mmol/l, rolipram 0.1 mmol/l
compound,measurement,setting,value
cAMP dependent protein kinase,phosphorylation of the cyclase portion of the GST fusion protein,[1],can be phosphorylated by cAMP dependent protein kinase
pertussis toxin,suppression of CRF-induced cAMP formation by extracellular Ca2+,"AtT20 cells [2]; Ca2+-depleted cells, pertussis toxin treatment",had no effect on the suppression of CRF-induced cAMP formation by extracelluar Ca^2+
same,inhibitory G-protein function (somatostatin-mediated inhibition of cAMP formation),AtT20 cells [2]; pertussis toxin 1 μg/ml,strongly suppressed inhibitory G-protein function
CNc1ccc2oc(C[C@H]3O[C@@]4(CC[C@H]3C)O[C@H]([C@H](C)C(=O)c3ccc[nH]3)[C@H](C)C[C@H]4C)nc2c1C(=O)O [A23187],cAMP response to CRF after lowering intracellular free Ca2+,AtT20 cells [2],markedly increased the cAMP response to CRF
CC(C)NCC(O)c1ccc(O)c(O)c1 (centres unmarked) [Isoproterenol],cAMP accumulation,"AtT20 cells [3]; isoproterenol 0.4 nmol/l, no pretreatment",0.7 ± 0.04
same,cAMP accumulation,"AtT20 cells [3]; isoproterenol 2 nmol/l, no pretreatment",2.0 ± 0.08
same,cAMP accumulation,"AtT20 cells [3]; isoproterenol 10 nmol/l, no pretreatment",9.5 ± 0.33
same,cAMP accumulation,"AtT20 cells [3]; isoproterenol 100 nmol/l, no pretreatment",19.5 ± .5
same,cAMP accumulation,"AtT20 cells [3]; isoproterenol 1000 nmol/l, no pretreatment",32.1 ± 0.5
O=C(O)CN(CCOCCOCCN(CC(=O)O)CC(=O)O)CC(=O)O [EGTA],cAMP response to CRF after lowering intracellular free Ca2+,AtT20 cells [2],markedly increased the cAMP response to CRF
"calcineurin (protein phosphatase 2B), as used on the GST fusion protein",dephosphorylation of the cyclase portion of the GST fusion protein,[1],dephosphorylated in a calcium dependent manner by calcineurin
C=CC[C@@H]1/C=C(\C)C[C@H](C)C[C@H](OC)[C@H]2O[C@@](O)(C(=O)C(=O)N3CCCC[C@H]3C(=O)O[C@H](/C(C)=C/[C@@H]3CC[C@@H](O)[C@H](OC)C3)[C@H](C)[C@@H](O)CC1=O)[C@H](C)C[C@@H]2OC [FK506],unstimulated cAMP levels,[4],3 fold
same,cAMP accumulation,AtT20 cells [3]; [7],3.3 ± 0.7
same,cAMP accumulation,AtT20 cells [3]; [8],15.3 ± 2.5
same,cAMP accumulation,AtT20 cells [3]; [9],45.3 ± 9
same,cAMP accumulation evoked by forskolin,AtT20 cells [5]; 10 or 30 μM forskolin,no significant effect
same,EC50,"AtT20 cells [6]; Mus musculus, AtT20, read-out: apparent EC50 to stimulate ACTH release",~10 nM
same,EC50,"AtT20 cells [2]; Mus musculus, AtT20, read-out: apparent EC50 to augment cAMP accumulation induced by CRF",~10 nM
same,CRF-induced cAMP formation,"AtT20 cells [2]; extracellular free Ca2+ 0 mmol/l, 0.5 mmol/l IBMX",10.3 ± 0.10 pmol/well
same,CRF-induced cAMP formation,"AtT20 cells [2]; extracellular free Ca2+ 0.5 mmol/l, 0.5 mmol/l IBMX",10.0 ± 0.11 pmol/well
same,CRF-induced cAMP formation,"AtT20 cells [2]; extracellular free Ca2+ 1.0 mmol/l, 0.5 mmol/l IBMX",10.4 ± 0.10 pmol/well
same,CRF-induced cAMP formation,"AtT20 cells [2]; extracellular free Ca2+ 1.5 mmol/l, 0.5 mmol/l IBMX",11.3 ± 0.13 pmol/well
same,CRF-induced cAMP formation,"AtT20 cells [2]; extracellular free Ca2+ 2.0 mmol/l, 0.5 mmol/l IBMX",9.5 ± 0.11 pmol/well
"CC(=O)OCOC(=O)CN(CC(=O)OCOC(C)=O)c1ccccc1OCCOc1ccccc1N(CC(=O)OCOC(C)=O)CC(=O)OCOC(C)=O [BAPTA-AM, [1,2-bis-(o-Aninophenoxy)-ethane-N,N,N′,N′-tetraacetic acid tetra-(acetoxymethyl)-ester]]",isoproterenol induced cAMP formation,AtT20 cells [3],enhanced
same,cAMP accumulation,"AtT20 cells [3]; isoproterenol 0.4 nmol/l, pretreatment FK506 1 μmol/l or BAPTA/AM 20 μmol/l, IBMX 0.5 mmol/l, rolipram 0.1 mmol/l",0.96 ± 0.06
same,cAMP accumulation,AtT20 cells [3]; [7],3.6 ± 0.6
same,cAMP accumulation,AtT20 cells [3]; [8],11.4 ± 0.9
same,cAMP accumulation,"AtT20 cells [3]; isoproterenol 100 nmol/l, pretreatment FK506 1 μmol/l or BAPTA/AM 20 μmol/l, IBMX 0.5 mmol/l, rolipram 0.1 mmol/l",35.5 ± 3.4
same,cAMP accumulation,AtT20 cells [3]; [9],46.9 ± 9
same,enhancement of forskolin-evoked cAMP accumulation,AtT20 cells [5]; cells loaded with BAPTA-AM,15%
same,cAMP response to CRF after lowering intracellular free Ca2+,AtT20 cells [2],markedly increased the cAMP response to CRF
C/C=C/C[C@@H](C)[C@@H](O)C1C(=O)N[C@@H](CC)C(=O)N(C)CC(=O)N(C)[C@@H](C(C)C)C(=O)N[C@@H](C(C)C)C(=O)N(C)[C@@H](CC(C)C)C(=O)N[C@@H](C)C(=O)N[C@H](C)C(=O)N(C)[C@@H](CC(C)C)C(=O)N(C)[C@@H](CC(C)C)C(=O)N(C)[C@@H](C(C)C)C(=O)N1C (some centres unmarked) [MeVal^4-cyclosporin A] (cyclo(A[dA][NMeL][NMeL][NMeV][ξNMeBmt][Abu][Sar][NMeV]V[NMeL])),CRF-induced cAMP production,"AtT20 cells [2]; 10 nmol/l CRF, 0.5 mmol/l IBMX, drug preincubated 30 minutes",enhanced CRF-induced cAMP production in a concentration dependent manner
"CRF: hypothalamic neuropeptide corticotropin-releasing factor (SEEPPISLDLTFHLLREVLEMARAEQLAQQAHSNRKLMEII; ends and bridges not checked; UniProt P06850 154-194, looked up)",CRF-stimulated ACTH release,"AtT20 cells [6]; FIG. 7A, value taken as 100%",22±1 fmol/well*30 minutes
same,cAMP level in the presence of CRF,AtT20 cells [2]; 10 nmol/l CRF (FIG. 3A),12 pmol/well*10minutes
same,increment of cAMP caused by CRF,"AtT20 cells [2]; 10 nmol/l CRF, 0.5 mmol/l isobutylmethylxanthine (FIG. 1)",6.1 pmol/well
